For one test, the target named is D(2) dopamine receptor (Homo sapiens, UniProt P14416). The experiment in a line: biochemical.
Test [1] concerns the target T1, D(3) dopamine receptor (Homo sapiens, UniProt P35462). The experiment in a line: biochemical.
Target sequence in this assay (P35462 whole entry): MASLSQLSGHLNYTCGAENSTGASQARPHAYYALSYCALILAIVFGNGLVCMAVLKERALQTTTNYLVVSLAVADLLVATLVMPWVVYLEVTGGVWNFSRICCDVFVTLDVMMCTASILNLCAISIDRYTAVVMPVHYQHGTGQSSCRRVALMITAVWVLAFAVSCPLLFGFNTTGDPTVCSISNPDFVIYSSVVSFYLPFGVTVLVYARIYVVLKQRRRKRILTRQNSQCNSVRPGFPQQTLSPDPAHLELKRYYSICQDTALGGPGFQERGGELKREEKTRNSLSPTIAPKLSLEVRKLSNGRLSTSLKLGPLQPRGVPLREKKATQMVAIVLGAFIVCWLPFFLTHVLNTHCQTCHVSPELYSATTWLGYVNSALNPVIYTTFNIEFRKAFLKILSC
Description: Binding affinity for human dopamine receptor D3 by displacing [125I]iodosulpiride expressed in CHO cells
The subject of test [2] is D(3) dopamine receptor (Homo sapiens). The experiment in a line: Intrinsic activity for Dopamine receptor D3 was determined.
The target in test [3] is D(3) dopamine receptor (Homo sapiens). The test can be described thus: Effective concentration for Dopamine receptor D3 was determined.
The target of test [4] is T1, D(3) dopamine receptor. The test can be described thus: Effective concentration for Dopamine receptor D3 was determined. It is filed as functional.
Target sequence in this assay (P35462 whole entry, looked up): as the sequence (P35462 whole entry) above

D(2) dopamine receptor, sequence (P14416 whole entry): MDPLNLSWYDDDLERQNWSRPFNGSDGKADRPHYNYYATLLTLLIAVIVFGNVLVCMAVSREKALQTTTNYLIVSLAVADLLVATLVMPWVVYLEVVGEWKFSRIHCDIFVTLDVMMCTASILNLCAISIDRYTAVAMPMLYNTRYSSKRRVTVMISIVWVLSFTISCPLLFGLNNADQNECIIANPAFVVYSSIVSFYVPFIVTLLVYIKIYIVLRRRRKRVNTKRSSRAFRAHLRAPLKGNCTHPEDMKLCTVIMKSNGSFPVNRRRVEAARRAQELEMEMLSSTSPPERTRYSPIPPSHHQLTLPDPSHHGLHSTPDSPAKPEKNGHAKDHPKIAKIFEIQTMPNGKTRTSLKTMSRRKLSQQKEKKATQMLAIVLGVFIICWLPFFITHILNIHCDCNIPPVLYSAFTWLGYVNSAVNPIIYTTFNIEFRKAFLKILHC
Description for D(2) dopamine receptor: Binding affinity for human dopamine receptor D2 by displacing [125I]iodosulpiride expressed in CHO cells

As usually defined, the Ki is the equilibrium dissociation constant of an inhibitor or competing ligand from its target. Lower therefore signals a stronger hold on the target. One may read the EC50 as the concentration giving half of the maximal effect. Read a high EC50 as lower potency in that assay. For the molecule `COc1ccccc1N1CCN(CCCCNC(=O)c2ccc(I)cc2)CC1`, the inhibitory constant (Ki) at D(2) dopamine receptor turned out to be 146 nM; at D(3) dopamine receptor [1], 3.9 nM. In test [2], this molecule gave an Intrinsic activity of 0.5. The same molecule displayed a concentration giving a half-maximal response (EC50) in test [3] of 1.2 nM.

Consider `COc1ccccc1N1CCN(CCCCNC(=O)c2cc3ccccc3cn2)CC1`, for which the response on D(3) dopamine receptor [4] was half-maximal at 2.5 nM (EC50). The inhibition constant Ki on D(2) dopamine receptor was 27.5 nM; on D(3) dopamine receptor [1], 1.48 nM.

For `COc1ccccc1N1CCN(CCCNC(=O)c2ccccc2I)CC1`, the inhibitory constant (Ki) at D(2) dopamine receptor was 126 nM; at D(3) dopamine receptor [1] it was 213 nM.

As for `COc1ccccc1N1CCN(CCCNC(=O)Cc2cccc3ccccc23)CC1`, the Ki at D(2) dopamine receptor worked out at 44 nM; on D(3) dopamine receptor [1], 108 nM.

`COc1ccccc1N1CCN(CCCCNC(=O)/C=C/c2ccc3c(c2)OCO3)CC1`: the Ki is 10.3 nM at D(2) dopamine receptor and 1 nM at D(3) dopamine receptor [1].

Turning to `COc1ccccc1N1CCN(CCCNC(=O)Cc2ccc3ccccc3c2)CC1`, the Ki on D(2) dopamine receptor is 56 nM; on D(3) dopamine receptor [1], 140 nM.

As for `COc1ccccc1N1CCN(CCCCNC(=O)/C=C/c2ccc(C(F)(F)F)cc2)CC1`, the Ki on D(2) dopamine receptor turned out to be 36.8 nM; on D(3) dopamine receptor [1] it was 2.14 nM.

`COc1ccccc1N1CCN(CCCCNC(=O)/C=C/c2ccc(C=O)cc2)CC1`: the Ki on D(2) dopamine receptor is 11.5 nM; at D(3) dopamine receptor [1] it was 0.73 nM.

`COc1ccccc1N1CCN(CCCCNC(=O)/C=C/c2ccc(Cl)cc2)CC1` gave an EC50 at D(3) dopamine receptor [4] of 10 nM. Also, the results for the Ki on D(2) dopamine receptor and on D(3) dopamine receptor [1] were 22.6 nM and 0.44 nM, respectively.

Turning to `COc1ccccc1N1CCN(CCCCNC(=O)Cc2ccc3ccccc3c2)CC1`, the inhibition constant (Ki) amounted to 35 nM on D(2) dopamine receptor and 32 nM on D(3) dopamine receptor [1].

`COc1ccccc1N1CCN(CCCCNC(=O)/C=C/c2ccc(Cl)cc2Cl)CC1`: the Ki on D(2) dopamine receptor was 21 nM; on D(3) dopamine receptor [1], 1.28 nM.

`COc1ccccc1N1CCN(CCCCNC(=O)c2ccc(C(=O)c3ccccc3)cc2)CC1`: the inhibitory constant (Ki) at D(2) dopamine receptor came out at 63 nM; at D(3) dopamine receptor [1], 2.5 nM.

`COc1ccccc1N1CCN(CCCCNC(=O)/C=C/c2ccccc2)CC1`: the inhibition constant (Ki) at D(2) dopamine receptor amounted to 13.5 nM; at D(3) dopamine receptor [1] it was 0.33 nM.

Consider `COc1ccccc1N1CCN(CCCCNC(=O)/C=C/c2cccc(Oc3ccccc3)c2)CC1`, for which the values for the inhibition constant (Ki) on D(2) dopamine receptor and at D(3) dopamine receptor [1] were 114 nM and 19.5 nM, respectively.

For `COc1ccccc1N1CCN(CCCCN2C(=O)c3cc4ccccc4cc3C2=O)CC1`, the Ki on D(2) dopamine receptor was 145 nM; at D(3) dopamine receptor [1] it was 23.3 nM.

As for `COc1ccccc1N1CCN(CCCCNC(=O)/C=C/c2ccco2)CC1`, the Ki on D(2) dopamine receptor came out at 11.1 nM; on D(3) dopamine receptor [1], 0.6 nM.

As for `COc1ccccc1N1CCN(CCCCNC(=O)/C=C/c2cccc(Cl)c2)CC1`, the values for the Ki at D(2) dopamine receptor and at D(3) dopamine receptor [1] were 20 nM and 0.46 nM, respectively.

Regarding `COc1ccccc1N1CCN(CCCCNC(=O)c2sc3ccccc3c2Cl)CC1`, the Ki at D(2) dopamine receptor worked out at 71.9 nM; on D(3) dopamine receptor [1], 6.7 nM.

`COc1ccccc1N1CCN(CCCCNC(=O)c2cc3ccccc3oc2=O)CC1`: the values for the inhibition constant Ki at D(2) dopamine receptor and on D(3) dopamine receptor [1] were 23 nM and 1.8 nM, respectively.

As to `COc1ccccc1N1CCN(CCCCNC(=O)/C=C/c2ccccc2Cl)CC1`, the inhibition constant Ki on D(2) dopamine receptor was determined as 15 nM; on D(3) dopamine receptor [1], 0.52 nM.

As to `COc1ccccc1N1CCN(CCCCNC(=O)/C=C/c2ccc(Cl)c(Cl)c2)CC1`, the inhibition constant (Ki) on D(2) dopamine receptor stood at 23 nM; on D(3) dopamine receptor [1] it was 1.31 nM.

On to `COc1ccccc1N1CCN(CCCCNC(=O)/C=C/c2ccc(Oc3ccccc3)cc2)CC1`, for which the inhibition constant Ki on D(2) dopamine receptor was determined as 65.2 nM; on D(3) dopamine receptor [1], 10.1 nM.

On to `COc1ccccc1N1CCN(CCCCNC(=O)/C=C/c2ccc(F)cc2)CC1`, for which the Ki was determined as 20.7 nM on D(2) dopamine receptor and 0.69 nM on D(3) dopamine receptor [1].

As for `COc1ccccc1N1CCN(CCCCNC(=O)/C=C/c2cc(I)c(OC)c(OC)c2)CC1`, the Ki at D(2) dopamine receptor worked out at 38.5 nM; at D(3) dopamine receptor [1], 14.9 nM.

In the case of `COc1ccccc1N1CCN(CCCCNC(=O)/C=C/c2cccs2)CC1`, the Ki on D(2) dopamine receptor was 9.5 nM; at D(3) dopamine receptor [1] it was 0.59 nM.

As for `COc1ccccc1N1CCN(CCCCNC(=O)CCc2ccccc2)CC1`, the inhibition constant Ki at D(2) dopamine receptor turned out to be 48.7 nM; on D(3) dopamine receptor [1], 4.8 nM.

For `COc1ccccc1N1CCN(CCCCNC(=O)C2CC2c2ccccc2)CC1` (stereo not given), the Ki on D(2) dopamine receptor turned out to be 81 nM; on D(3) dopamine receptor [1], 15.5 nM.

Regarding `COc1ccc2cc([C@H](C)C(=O)NCCCN3CCN(c4ccccc4OC)CC3)ccc2c1`, the Ki came out at 94.6 nM at D(2) dopamine receptor and 262 nM on D(3) dopamine receptor [1].

Regarding `COc1ccccc1N1CCN(CCCN2C(=O)c3ccccc3C2=O)CC1`, the Ki at D(2) dopamine receptor was 300 nM; at D(3) dopamine receptor [1], 560 nM.

`COc1ccccc1N1CCN(CCCCNC(=O)C2(c3ccc(Cl)cc3)CCCC2)CC1`: the inhibitory constant (Ki) on D(2) dopamine receptor came out at 56 nM; at D(3) dopamine receptor [1], 42 nM.

Regarding `COc1ccccc1N1CCN(CCCCNC(=O)/C=C/c2ccc(Br)cc2)CC1`, the Ki was 23.7 nM at D(2) dopamine receptor and 0.43 nM at D(3) dopamine receptor [1].

Regarding `COc1ccccc1N1CCN(CCCCNC(=O)/C=C/c2ccccc2I)CC1`, the figures for the Ki at D(2) dopamine receptor and at D(3) dopamine receptor [1] were 63 nM and 0.75 nM, respectively.

Take `COc1ccccc1N1CCN(CCCCNC(=O)c2ccc(C(C)=O)cc2)CC1`: the inhibition constant (Ki) at D(2) dopamine receptor was 17.5 nM; on D(3) dopamine receptor [1], 1 nM.

Take `COc1ccccc1N1CCN(CCCNC(=O)c2cccc(I)c2)CC1`: the Ki stood at 235 nM at D(2) dopamine receptor and 300 nM at D(3) dopamine receptor [1].

On to `COc1ccccc1N1CCN(CCCCNC(=O)/C=C/C=C/c2ccccc2)CC1`, for which the Ki on D(2) dopamine receptor came out at 19 nM; on D(3) dopamine receptor [1], 1.5 nM.

For `COc1ccccc1N1CCN(CCCCNC(=O)c2cccc3c2-c2ccccc2C3=O)CC1`, the figures for the inhibitory constant (Ki) at D(2) dopamine receptor and on D(3) dopamine receptor [1] were 18 nM and 2.96 nM, respectively.

For the molecule `COc1ccccc1N1CCN(CCCCNC(=O)/C=C/c2cccnc2)CC1`, the Ki on D(2) dopamine receptor is 14.5 nM; at D(3) dopamine receptor [1], 0.5 nM.

With `COc1ccccc1N1CCN(CCCCNC(=O)/C=C/c2ccc(-c3ccccc3)cc2)CC1`, the Ki is 37 nM on D(2) dopamine receptor and 16 nM at D(3) dopamine receptor [1].

With `COc1ccccc1N1CCN(C2CC3CC(N4CCN(c5ccccc5OC)CC4)CC3C2)CC1` (stereo not given), the figures for the Ki on D(2) dopamine receptor and on D(3) dopamine receptor [1] were 630 nM and 700 nM, respectively.

For `COc1ccccc1N1CCN(CCCCNC(=O)/C=C/c2ccc(/C=C/C(=O)NCCCCN3CCN(c4ccccc4OC)CC3)cc2)CC1`, the inhibitory constant (Ki) was found to be 7.2 nM at D(2) dopamine receptor and 3.6 nM on D(3) dopamine receptor [1].

Take `COc1ccccc1N1CCN(CCCNC(=O)c2ccc(I)cc2)CC1`: the Ki at D(2) dopamine receptor was 117 nM; on D(3) dopamine receptor [1], 396 nM.

With `COc1ccccc1N1CCN(CCCCN2C(=O)C=C(c3ccccc3)C2=O)CC1`, the Ki on D(2) dopamine receptor is 330 nM; on D(3) dopamine receptor [1], 320 nM.

In the case of `COc1ccccc1N1CCN(CCCCNC(=O)/C=C/c2ccc3ccccc3c2)CC1`, the Ki at D(2) dopamine receptor is 32 nM; at D(3) dopamine receptor [1], 0.68 nM.

The values above are taken from ChEMBL document CHEMBL1144878, “N-(omega-(4-(2-methoxyphenyl)piperazin-1-yl)alkyl)carboxamides as dopamine D2 and D3 receptor ligands” (J Med Chem, 2003).
